PubChem BioAssay (NCI)
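Briefly, cells in 96-well plates were exposed to five compound concentrations for 48 h, and endpoints were estimated by linear interpolation. The concentration for full growth arrest is given as TGI.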

Legend:
Experiment in all cases: NCI-60 cell line screen, 48 h
ACHN renal = tested on: ACHN renal
SNB-19 CNS = tested on: SNB-19 CNS
HCC-2998 colon = tested on: HCC-2998 colon
A549 NSCLC = tested on: A549 NSCLC
MOLT-4 leukemia = tested on: MOLT-4 leukemia
SW-620 colon = tested on: SW-620 colon
HT29 colon = tested on: HT29 colon
CCRF-CEM leukemia = tested on: CCRF-CEM leukemia
NCI/ADR-RES ovarian = tested on: NCI/ADR-RES ovarian
OVCAR-3 ovarian = tested on: OVCAR-3 ovarian
HCT-15 colon = tested on: HCT-15 colon
CAKI-1 renal = tested on: CAKI-1 renal
KM12 colon = tested on: KM12 colon
A498 renal = tested on: A498 renal
MDA-MB-231 breast = tested on: MDA-MB-231 breast
BT-549 breast = tested on: BT-549 breast
SN12C renal = tested on: SN12C renal
UACC-257 melanoma = tested on: UACC-257 melanoma
HS 578T breast = tested on: HS 578T breast
MALME-3M melanoma = tested on: MALME-3M melanoma
HL-60(TB) leukemia = tested on: HL-60(TB) leukemia
SK-MEL-5 melanoma = tested on: SK-MEL-5 melanoma
NCI-H522 lung = tested on: NCI-H522 lung
SF-295 CNS = tested on: SF-295 CNS
RPMI-8226 leukemia = tested on: RPMI-8226 leukemia
OVCAR-8 ovarian = tested on: OVCAR-8 ovarian
SF-268 CNS = tested on: SF-268 CNS
T-47D breast = tested on: T-47D breast
NCI-H23 lung = tested on: NCI-H23 lung
NCI-H460 lung = tested on: NCI-H460 lung
786-0 renal = tested on: 786-0 renal
SK-OV-3 ovarian = tested on: SK-OV-3 ovarian
OVCAR-5 ovarian = tested on: OVCAR-5 ovarian
PC-3 prostate = tested on: PC-3 prostate
SF-539 CNS = tested on: SF-539 CNS
OVCAR-4 ovarian = tested on: OVCAR-4 ovarian
HOP-62 NSCLC = tested on: HOP-62 NSCLC
EKVX NSCLC = tested on: EKVX NSCLC
UO-31 renal = tested on: UO-31 renal
MDA-MB-435 = tested on: MDA-MB-435
HCT-116 colon = tested on: HCT-116 colon
SR leukemia = tested on: SR leukemia
HOP-92 NSCLC = tested on: HOP-92 NSCLC
COLO 205 colon = tested on: COLO 205 colon
UACC-62 melanoma = tested on: UACC-62 melanoma
IGROV1 ovarian = tested on: IGROV1 ovarian
LOX IMVI melanoma = tested on: LOX IMVI melanoma
K-562 leukemia = tested on: K-562 leukemia
MCF7 breast = tested on: MCF7 breast
U251 CNS = tested on: U251 CNS
DU-145 prostate = tested on: DU-145 prostate
TK-10 renal = tested on: TK-10 renal
SK-MEL-2 melanoma = tested on: SK-MEL-2 melanoma
MDA-N = tested on: MDA-N
SK-MEL-28 melanoma = tested on: SK-MEL-28 melanoma
RXF 393 renal = tested on: RXF 393 renal
SNB-75 CNS = tested on: SNB-75 CNS
NCI-H226 lung = tested on: NCI-H226 lung
M14 melanoma = tested on: M14 melanoma

Q: Which TGI (ACHN renal) does the source give for `O=C1CSC(c2cccc(Cl)c2)N1c1ccc(-n2c(-c3ccccc3)nc3ccccc3c2=O)cc1` (stereo unspecified) here?
A: > 100 µM

Q: And the TGI (SNB-19 CNS)?
A: > 100 µM

Q: What about the TGI (HCC-2998 colon) of the same molecule?
A: > 100 µM

Q: And the TGI (A549 NSCLC)?
A: > 100 µM

Q: What about the TGI (MOLT-4 leukemia) of the same molecule?
A: > 100 µM

Q: What about the TGI (SW-620 colon) of the same molecule?
A: > 100 µM

Q: And the TGI (HT29 colon)?
A: > 100 µM

Q: And the TGI (CCRF-CEM leukemia)?
A: > 100 µM

Q: What about the TGI (NCI/ADR-RES ovarian) of the same molecule?
A: > 100 µM

Q: What about the TGI (OVCAR-3 ovarian) of the same molecule?
A: > 100 µM

Q: And the TGI (HCT-15 colon)?
A: > 100 µM

Q: What about the TGI (CAKI-1 renal) of the same molecule?
A: > 100 µM

Q: And the TGI (KM12 colon)?
A: > 100 µM

Q: And the TGI (A498 renal)?
A: > 100 µM

Q: And the TGI (MDA-MB-231 breast)?
A: > 100 µM

Q: What about the TGI (BT-549 breast) of the same molecule?
A: > 100 µM

Q: What about the TGI (SN12C renal) of the same molecule?
A: > 100 µM

Q: And the TGI (UACC-257 melanoma)?
A: > 100 µM

Q: And the TGI (HS 578T breast)?
A: > 100 µM

Q: What about the TGI (MALME-3M melanoma) of the same molecule?
A: > 100 µM

Q: What about the TGI (HL-60(TB) leukemia) of the same molecule?
A: > 100 µM

Q: What about the TGI (SK-MEL-5 melanoma) of the same molecule?
A: > 100 µM

Q: And the TGI (NCI-H522 lung)?
A: > 100 µM

Q: What about the TGI (SF-295 CNS) of the same molecule?
A: > 100 µM

Q: And the TGI (RPMI-8226 leukemia)?
A: > 100 µM

Q: What about the TGI (OVCAR-8 ovarian) of the same molecule?
A: > 100 µM

Q: And the TGI (SF-268 CNS)?
A: > 100 µM

Q: What about the TGI (T-47D breast) of the same molecule?
A: > 100 µM

Q: And the TGI (NCI-H23 lung)?
A: > 100 µM

Q: What about the TGI (NCI-H460 lung) of the same molecule?
A: > 100 µM

Q: What about the TGI (786-0 renal) of the same molecule?
A: > 100 µM

Q: And the TGI (SK-OV-3 ovarian)?
A: > 100 µM

Q: What about the TGI (OVCAR-5 ovarian) of the same molecule?
A: > 100 µM

Q: And the TGI (PC-3 prostate)?
A: > 100 µM

Q: And the TGI (SF-539 CNS)?
A: > 100 µM

Q: What about the TGI (OVCAR-4 ovarian) of the same molecule?
A: 62.9 µM

Q: And the TGI (HOP-62 NSCLC)?
A: > 100 µM

Q: What about the TGI (EKVX NSCLC) of the same molecule?
A: > 100 µM

Q: What about the TGI (UO-31 renal) of the same molecule?
A: 24.7 µM

Q: And the TGI (MDA-MB-435)?
A: > 100 µM

Q: And the TGI (HCT-116 colon)?
A: > 100 µM

Q: What about the TGI (SR leukemia) of the same molecule?
A: > 100 µM

Q: What about the TGI (HOP-92 NSCLC) of the same molecule?
A: > 100 µM

Q: And the TGI (COLO 205 colon)?
A: > 100 µM

Q: And the TGI (UACC-62 melanoma)?
A: > 100 µM

Q: What about the TGI (IGROV1 ovarian) of the same molecule?
A: > 100 µM

Q: And the TGI (LOX IMVI melanoma)?
A: > 100 µM

Q: What about the TGI (K-562 leukemia) of the same molecule?
A: > 100 µM

Q: What about the TGI (MCF7 breast) of the same molecule?
A: > 100 µM

Q: What about the TGI (U251 CNS) of the same molecule?
A: > 100 µM

Q: And the TGI (DU-145 prostate)?
A: > 100 µM

Q: What about the TGI (TK-10 renal) of the same molecule?
A: > 100 µM

Q: And the TGI (SK-MEL-2 melanoma)?
A: > 100 µM

Q: What about the TGI (MDA-N) of the same molecule?
A: > 100 µM

Q: And the TGI (SK-MEL-28 melanoma)?
A: > 100 µM

Q: With `O=C1NC(=O)C(c2c[nH]c3cc(Br)ccc23)=C1c1cnc[nH]1` as the molecule, how does the TGI (ACHN renal) read?
A: > 100 µM

Q: And the TGI (SNB-19 CNS)?
A: > 100 µM

Q: And the TGI (RXF 393 renal)?
A: > 100 µM

Q: What about the TGI (A549 NSCLC) of the same molecule?
A: > 100 µM

Q: What about the TGI (MOLT-4 leukemia) of the same molecule?
A: > 100 µM

Q: And the TGI (SW-620 colon)?
A: > 100 µM

Q: What about the TGI (HT29 colon) of the same molecule?
A: > 100 µM

Q: What about the TGI (CCRF-CEM leukemia) of the same molecule?
A: > 100 µM

Q: And the TGI (NCI/ADR-RES ovarian)?
A: > 100 µM

Q: What about the TGI (OVCAR-3 ovarian) of the same molecule?
A: 81.4 µM

Q: What about the TGI (HCT-15 colon) of the same molecule?
A: > 100 µM

Q: And the TGI (CAKI-1 renal)?
A: > 100 µM

Q: What about the TGI (KM12 colon) of the same molecule?
A: > 100 µM

Q: What about the TGI (A498 renal) of the same molecule?
A: 52.2 µM

Q: And the TGI (MDA-MB-231 breast)?
A: > 100 µM

Q: What about the TGI (BT-549 breast) of the same molecule?
A: 75 µM

Q: And the TGI (SNB-75 CNS)?
A: > 100 µM

Q: What about the TGI (SN12C renal) of the same molecule?
A: > 100 µM

Q: What about the TGI (UACC-257 melanoma) of the same molecule?
A: 44.9 µM

Q: What about the TGI (HS 578T breast) of the same molecule?
A: > 100 µM

Q: What about the TGI (MALME-3M melanoma) of the same molecule?
A: > 100 µM

Q: And the TGI (HL-60(TB) leukemia)?
A: 93.3 µM

Q: What about the TGI (SK-MEL-5 melanoma) of the same molecule?
A: 25 µM

Q: What about the TGI (NCI-H522 lung) of the same molecule?
A: 98.7 µM

Q: And the TGI (SF-295 CNS)?
A: > 100 µM

Q: What about the TGI (RPMI-8226 leukemia) of the same molecule?
A: > 100 µM

Q: What about the TGI (OVCAR-8 ovarian) of the same molecule?
A: > 100 µM

Q: What about the TGI (SF-268 CNS) of the same molecule?
A: > 100 µM

Q: And the TGI (T-47D breast)?
A: > 100 µM

Q: And the TGI (NCI-H460 lung)?
A: > 100 µM

Q: And the TGI (786-0 renal)?
A: > 100 µM

Q: What about the TGI (SK-OV-3 ovarian) of the same molecule?
A: > 100 µM

Q: What about the TGI (OVCAR-5 ovarian) of the same molecule?
A: > 100 µM

Q: What about the TGI (PC-3 prostate) of the same molecule?
A: > 100 µM

Q: What about the TGI (SF-539 CNS) of the same molecule?
A: 72.6 µM

Q: What about the TGI (OVCAR-4 ovarian) of the same molecule?
A: > 100 µM

Q: And the TGI (HOP-62 NSCLC)?
A: > 100 µM

Q: And the TGI (EKVX NSCLC)?
A: > 100 µM

Q: And the TGI (UO-31 renal)?
A: > 100 µM

Q: What about the TGI (MDA-MB-435) of the same molecule?
A: > 100 µM

Q: What about the TGI (HCT-116 colon) of the same molecule?
A: > 100 µM

Q: And the TGI (SR leukemia)?
A: > 100 µM

Q: What about the TGI (HOP-92 NSCLC) of the same molecule?
A: > 100 µM

Q: What about the TGI (COLO 205 colon) of the same molecule?
A: 63.2 µM

Q: What about the TGI (IGROV1 ovarian) of the same molecule?
A: > 100 µM

Q: And the TGI (NCI-H226 lung)?
A: 7.87 µM

Q: And the TGI (LOX IMVI melanoma)?
A: > 100 µM

Q: What about the TGI (K-562 leukemia) of the same molecule?
A: > 100 µM

Q: And the TGI (M14 melanoma)?
A: > 100 µM

Q: And the TGI (MCF7 breast)?
A: > 100 µM

Q: And the TGI (U251 CNS)?
A: > 100 µM

Q: And the TGI (DU-145 prostate)?
A: > 100 µM

Q: What about the TGI (TK-10 renal) of the same molecule?
A: > 100 µM

Q: What about the TGI (SK-MEL-2 melanoma) of the same molecule?
A: 79.3 µM

Q: What about the TGI (MDA-N) of the same molecule?
A: > 100 µM

Q: And the TGI (SK-MEL-28 melanoma)?
A: > 100 µM
